Assay results from publication PMC5564600 (Oncotarget, 2017).

How the values were obtained:
Assay in all cases: biochemical
Type in all cases: binding
panel of 442 kinases [1] = molecular target: T1, panel of 442 kinases (Homo sapiens, UniProt P31751); settings: AKT2; for remaining activity at 1 µM: read-out: % of control at 1 µM
T1 construct: purchased Ambit Biosciences (scanMAXX KINOMEscan)

panel of 442 kinases [2] = molecular target: T2, panel of 442 kinases (Homo sapiens, UniProt Q13523); settings: kinase PRP4; for remaining activity at 1 µM: read-out: PRP4 (% of control at 1 µM)
T2 construct: purchased Ambit Biosciences (scanMAXX KINOMEscan)

panel of 442 kinases [3] = molecular target: T3, panel of 442 kinases (Homo sapiens, UniProt P54762); settings: EPHB1; for remaining activity at 1 µM: read-out: % of control at 1 µM
T3 construct: purchased Ambit Biosciences (scanMAXX KINOMEscan)
T3 sequence (P54762 18-984): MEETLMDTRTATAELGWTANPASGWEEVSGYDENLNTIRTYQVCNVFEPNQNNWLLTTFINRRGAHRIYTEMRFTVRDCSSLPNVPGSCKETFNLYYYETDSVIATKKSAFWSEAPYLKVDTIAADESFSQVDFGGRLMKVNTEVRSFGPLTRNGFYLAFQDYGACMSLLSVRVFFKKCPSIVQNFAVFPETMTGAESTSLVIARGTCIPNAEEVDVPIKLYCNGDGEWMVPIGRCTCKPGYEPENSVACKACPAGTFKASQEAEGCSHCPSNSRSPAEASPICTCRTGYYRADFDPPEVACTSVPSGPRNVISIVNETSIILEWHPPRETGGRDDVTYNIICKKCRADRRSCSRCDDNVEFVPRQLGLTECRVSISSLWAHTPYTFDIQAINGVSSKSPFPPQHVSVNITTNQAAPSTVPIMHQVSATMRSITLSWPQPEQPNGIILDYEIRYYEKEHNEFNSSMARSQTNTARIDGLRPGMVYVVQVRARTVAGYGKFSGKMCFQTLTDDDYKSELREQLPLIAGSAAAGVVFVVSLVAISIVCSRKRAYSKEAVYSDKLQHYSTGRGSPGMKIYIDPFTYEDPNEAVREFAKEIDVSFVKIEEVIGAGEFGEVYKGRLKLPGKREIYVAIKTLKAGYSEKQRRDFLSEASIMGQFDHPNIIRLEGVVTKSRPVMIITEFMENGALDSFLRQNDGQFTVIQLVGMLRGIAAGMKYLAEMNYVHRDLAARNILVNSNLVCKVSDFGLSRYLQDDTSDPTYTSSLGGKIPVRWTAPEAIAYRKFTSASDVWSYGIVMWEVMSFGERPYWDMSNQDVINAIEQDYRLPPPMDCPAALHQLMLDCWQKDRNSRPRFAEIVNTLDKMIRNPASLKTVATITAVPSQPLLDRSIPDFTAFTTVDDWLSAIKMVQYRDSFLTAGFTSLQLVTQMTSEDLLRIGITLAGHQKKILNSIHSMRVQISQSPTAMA

panel of 442 kinases [4] = molecular target: T4, panel of 442 kinases (Homo sapiens, UniProt Q86UX6); settings: kinase YANK3; for remaining activity at 1 µM: read-out: YANK3 (% of control at 1 µM)
T4 construct: purchased Ambit Biosciences (scanMAXX KINOMEscan)

panel of 442 kinases [5] = molecular target: T5, panel of 442 kinases (Homo sapiens, UniProt P36896); settings: ACVR1B; for remaining activity at 1 µM: read-out: % of control at 1 µM
T5 construct: purchased Ambit Biosciences (scanMAXX KINOMEscan)
T5 sequence (P36896 24-505): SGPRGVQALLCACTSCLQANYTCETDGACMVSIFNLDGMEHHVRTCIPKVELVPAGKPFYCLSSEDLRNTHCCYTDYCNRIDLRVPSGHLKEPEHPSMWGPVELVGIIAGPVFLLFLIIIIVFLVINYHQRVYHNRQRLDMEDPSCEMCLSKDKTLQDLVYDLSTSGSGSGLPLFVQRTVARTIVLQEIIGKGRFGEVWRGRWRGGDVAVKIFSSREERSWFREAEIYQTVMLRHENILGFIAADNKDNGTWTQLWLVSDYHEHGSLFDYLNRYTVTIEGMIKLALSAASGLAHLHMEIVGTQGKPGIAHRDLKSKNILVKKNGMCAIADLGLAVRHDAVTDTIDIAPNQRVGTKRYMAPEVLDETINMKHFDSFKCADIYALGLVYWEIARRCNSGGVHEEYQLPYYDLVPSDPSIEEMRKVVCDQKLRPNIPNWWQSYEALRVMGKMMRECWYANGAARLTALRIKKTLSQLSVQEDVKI

panel of 442 kinases [6] = molecular target: T6, panel of 442 kinases (Homo sapiens, UniProt P36888, K663Q); settings: FLT3(K663Q); for remaining activity at 1 µM: read-out: % of control at 1 µM
T6 construct: purchased Ambit Biosciences (scanMAXX KINOMEscan)
T6 sequence (P36888 27-993 K663Q): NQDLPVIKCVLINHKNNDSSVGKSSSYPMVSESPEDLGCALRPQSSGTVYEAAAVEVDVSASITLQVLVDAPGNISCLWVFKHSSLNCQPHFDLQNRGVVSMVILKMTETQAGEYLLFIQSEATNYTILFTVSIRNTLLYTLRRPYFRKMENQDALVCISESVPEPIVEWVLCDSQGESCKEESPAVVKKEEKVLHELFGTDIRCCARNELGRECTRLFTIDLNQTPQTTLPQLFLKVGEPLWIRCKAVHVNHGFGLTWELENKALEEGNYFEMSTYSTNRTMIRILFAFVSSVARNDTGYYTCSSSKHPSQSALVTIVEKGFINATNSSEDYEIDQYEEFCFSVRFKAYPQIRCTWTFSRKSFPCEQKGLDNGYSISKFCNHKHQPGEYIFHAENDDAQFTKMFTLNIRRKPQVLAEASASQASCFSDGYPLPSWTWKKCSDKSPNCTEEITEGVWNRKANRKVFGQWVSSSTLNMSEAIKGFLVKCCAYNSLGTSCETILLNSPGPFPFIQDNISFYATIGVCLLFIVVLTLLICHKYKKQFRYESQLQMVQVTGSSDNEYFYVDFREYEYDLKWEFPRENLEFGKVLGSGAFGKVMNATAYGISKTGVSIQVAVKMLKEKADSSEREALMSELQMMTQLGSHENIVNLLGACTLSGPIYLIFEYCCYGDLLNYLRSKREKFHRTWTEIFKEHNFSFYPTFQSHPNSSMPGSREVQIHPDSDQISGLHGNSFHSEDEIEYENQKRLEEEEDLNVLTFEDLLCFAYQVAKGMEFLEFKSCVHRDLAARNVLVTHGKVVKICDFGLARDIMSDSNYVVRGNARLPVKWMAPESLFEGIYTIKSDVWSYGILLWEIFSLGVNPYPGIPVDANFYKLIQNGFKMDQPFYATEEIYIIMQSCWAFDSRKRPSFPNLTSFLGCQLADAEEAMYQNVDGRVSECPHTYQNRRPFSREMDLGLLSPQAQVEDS

panel of 442 kinases [7] = molecular target: T7, panel of 442 kinases (Homo sapiens, UniProt Q8N4C8); settings: kinase MINK; for remaining activity at 1 µM: read-out: % of control at 1 µM
T7 construct: purchased Ambit Biosciences (scanMAXX KINOMEscan)

panel of 442 kinases [8] = molecular target: T8, panel of 442 kinases (Homo sapiens, UniProt P35590); settings: kinase TIE1; for remaining activity at 1 µM: read-out: TIE1 (% of control at 1 µM)
T8 construct: purchased Ambit Biosciences (scanMAXX KINOMEscan)

[9] = 10 µM, read-out: % of control at 10 µM

T2 sequence (Q13523 whole entry): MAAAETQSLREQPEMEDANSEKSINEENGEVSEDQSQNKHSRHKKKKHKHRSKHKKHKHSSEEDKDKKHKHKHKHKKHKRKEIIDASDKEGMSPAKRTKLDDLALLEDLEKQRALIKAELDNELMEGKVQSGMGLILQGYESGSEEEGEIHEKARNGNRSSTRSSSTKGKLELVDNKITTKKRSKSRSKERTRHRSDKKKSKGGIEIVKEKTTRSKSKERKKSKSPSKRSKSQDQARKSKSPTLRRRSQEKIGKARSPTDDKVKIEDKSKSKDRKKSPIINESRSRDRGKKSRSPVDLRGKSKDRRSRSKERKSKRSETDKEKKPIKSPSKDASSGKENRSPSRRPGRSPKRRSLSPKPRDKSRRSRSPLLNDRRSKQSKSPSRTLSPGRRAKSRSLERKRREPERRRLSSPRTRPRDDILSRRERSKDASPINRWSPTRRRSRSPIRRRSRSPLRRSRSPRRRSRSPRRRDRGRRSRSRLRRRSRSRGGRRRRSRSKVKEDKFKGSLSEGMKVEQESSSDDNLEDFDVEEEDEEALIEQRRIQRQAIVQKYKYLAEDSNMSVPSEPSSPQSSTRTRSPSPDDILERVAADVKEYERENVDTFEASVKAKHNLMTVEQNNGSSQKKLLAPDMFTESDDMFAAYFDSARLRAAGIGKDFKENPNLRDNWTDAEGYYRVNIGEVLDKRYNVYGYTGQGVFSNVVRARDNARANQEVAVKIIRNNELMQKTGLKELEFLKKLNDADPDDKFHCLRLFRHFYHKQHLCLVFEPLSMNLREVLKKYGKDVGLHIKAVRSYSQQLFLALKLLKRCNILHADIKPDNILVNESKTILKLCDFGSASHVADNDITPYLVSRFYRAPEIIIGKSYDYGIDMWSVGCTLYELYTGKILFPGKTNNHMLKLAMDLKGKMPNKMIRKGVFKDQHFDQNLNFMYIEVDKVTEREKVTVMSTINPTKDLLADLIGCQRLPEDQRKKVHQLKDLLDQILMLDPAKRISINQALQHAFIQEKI
T1 sequence (P31751 whole entry): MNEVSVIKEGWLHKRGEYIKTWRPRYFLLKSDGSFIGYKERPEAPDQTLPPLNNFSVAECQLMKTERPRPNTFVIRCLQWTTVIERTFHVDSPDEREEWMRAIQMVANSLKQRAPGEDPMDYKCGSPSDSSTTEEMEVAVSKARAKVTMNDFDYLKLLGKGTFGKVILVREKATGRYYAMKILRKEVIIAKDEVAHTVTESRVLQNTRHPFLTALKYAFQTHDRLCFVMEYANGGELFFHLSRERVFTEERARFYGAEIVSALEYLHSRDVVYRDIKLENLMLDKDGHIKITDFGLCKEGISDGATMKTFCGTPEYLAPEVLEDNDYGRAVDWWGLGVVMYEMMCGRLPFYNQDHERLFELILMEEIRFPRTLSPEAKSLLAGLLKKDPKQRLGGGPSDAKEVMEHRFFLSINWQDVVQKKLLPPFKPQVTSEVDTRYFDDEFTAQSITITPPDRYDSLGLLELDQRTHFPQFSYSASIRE
T4 sequence (Q86UX6 whole entry): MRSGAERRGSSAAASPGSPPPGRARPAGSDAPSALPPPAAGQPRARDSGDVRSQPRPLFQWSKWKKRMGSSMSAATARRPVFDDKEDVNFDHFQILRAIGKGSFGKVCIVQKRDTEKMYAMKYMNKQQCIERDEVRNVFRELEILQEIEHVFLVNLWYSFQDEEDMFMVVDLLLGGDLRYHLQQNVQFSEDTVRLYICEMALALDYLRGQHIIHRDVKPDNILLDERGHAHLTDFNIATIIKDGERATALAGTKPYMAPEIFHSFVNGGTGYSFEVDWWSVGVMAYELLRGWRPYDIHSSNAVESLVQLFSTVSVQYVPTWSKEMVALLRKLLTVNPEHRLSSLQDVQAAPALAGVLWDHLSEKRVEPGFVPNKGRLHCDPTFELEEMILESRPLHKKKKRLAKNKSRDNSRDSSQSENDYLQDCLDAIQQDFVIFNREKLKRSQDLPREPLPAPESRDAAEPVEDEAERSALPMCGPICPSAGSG
T8 sequence (P35590 22-1138): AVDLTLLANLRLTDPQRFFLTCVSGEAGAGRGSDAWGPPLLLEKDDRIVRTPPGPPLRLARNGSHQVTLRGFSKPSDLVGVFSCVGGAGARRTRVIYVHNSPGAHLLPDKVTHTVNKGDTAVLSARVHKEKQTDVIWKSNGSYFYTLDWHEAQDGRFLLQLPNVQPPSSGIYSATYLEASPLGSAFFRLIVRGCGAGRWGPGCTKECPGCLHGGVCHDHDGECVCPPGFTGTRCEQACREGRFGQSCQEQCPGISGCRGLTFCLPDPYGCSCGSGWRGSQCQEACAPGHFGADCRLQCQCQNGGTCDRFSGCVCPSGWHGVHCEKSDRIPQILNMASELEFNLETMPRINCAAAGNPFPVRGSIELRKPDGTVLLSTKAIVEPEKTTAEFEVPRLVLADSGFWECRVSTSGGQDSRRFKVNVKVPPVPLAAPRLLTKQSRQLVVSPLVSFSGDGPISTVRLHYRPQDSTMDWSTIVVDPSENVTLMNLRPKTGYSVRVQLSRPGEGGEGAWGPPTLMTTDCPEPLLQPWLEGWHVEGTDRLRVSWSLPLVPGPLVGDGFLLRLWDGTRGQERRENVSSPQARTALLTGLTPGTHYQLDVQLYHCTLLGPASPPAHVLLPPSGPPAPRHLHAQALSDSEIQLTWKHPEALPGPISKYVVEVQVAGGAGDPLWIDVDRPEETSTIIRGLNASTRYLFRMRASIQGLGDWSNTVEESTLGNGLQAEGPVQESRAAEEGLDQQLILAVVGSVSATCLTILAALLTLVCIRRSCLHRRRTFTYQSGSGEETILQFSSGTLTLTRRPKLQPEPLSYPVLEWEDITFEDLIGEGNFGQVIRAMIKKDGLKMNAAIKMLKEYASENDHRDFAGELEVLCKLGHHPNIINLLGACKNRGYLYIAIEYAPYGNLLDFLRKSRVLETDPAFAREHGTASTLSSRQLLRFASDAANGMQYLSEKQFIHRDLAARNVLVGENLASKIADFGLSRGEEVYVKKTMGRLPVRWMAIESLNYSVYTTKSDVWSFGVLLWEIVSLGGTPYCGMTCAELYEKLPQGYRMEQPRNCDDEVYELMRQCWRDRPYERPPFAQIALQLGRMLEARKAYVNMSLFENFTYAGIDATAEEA
T7 sequence (Q8N4C8 whole entry): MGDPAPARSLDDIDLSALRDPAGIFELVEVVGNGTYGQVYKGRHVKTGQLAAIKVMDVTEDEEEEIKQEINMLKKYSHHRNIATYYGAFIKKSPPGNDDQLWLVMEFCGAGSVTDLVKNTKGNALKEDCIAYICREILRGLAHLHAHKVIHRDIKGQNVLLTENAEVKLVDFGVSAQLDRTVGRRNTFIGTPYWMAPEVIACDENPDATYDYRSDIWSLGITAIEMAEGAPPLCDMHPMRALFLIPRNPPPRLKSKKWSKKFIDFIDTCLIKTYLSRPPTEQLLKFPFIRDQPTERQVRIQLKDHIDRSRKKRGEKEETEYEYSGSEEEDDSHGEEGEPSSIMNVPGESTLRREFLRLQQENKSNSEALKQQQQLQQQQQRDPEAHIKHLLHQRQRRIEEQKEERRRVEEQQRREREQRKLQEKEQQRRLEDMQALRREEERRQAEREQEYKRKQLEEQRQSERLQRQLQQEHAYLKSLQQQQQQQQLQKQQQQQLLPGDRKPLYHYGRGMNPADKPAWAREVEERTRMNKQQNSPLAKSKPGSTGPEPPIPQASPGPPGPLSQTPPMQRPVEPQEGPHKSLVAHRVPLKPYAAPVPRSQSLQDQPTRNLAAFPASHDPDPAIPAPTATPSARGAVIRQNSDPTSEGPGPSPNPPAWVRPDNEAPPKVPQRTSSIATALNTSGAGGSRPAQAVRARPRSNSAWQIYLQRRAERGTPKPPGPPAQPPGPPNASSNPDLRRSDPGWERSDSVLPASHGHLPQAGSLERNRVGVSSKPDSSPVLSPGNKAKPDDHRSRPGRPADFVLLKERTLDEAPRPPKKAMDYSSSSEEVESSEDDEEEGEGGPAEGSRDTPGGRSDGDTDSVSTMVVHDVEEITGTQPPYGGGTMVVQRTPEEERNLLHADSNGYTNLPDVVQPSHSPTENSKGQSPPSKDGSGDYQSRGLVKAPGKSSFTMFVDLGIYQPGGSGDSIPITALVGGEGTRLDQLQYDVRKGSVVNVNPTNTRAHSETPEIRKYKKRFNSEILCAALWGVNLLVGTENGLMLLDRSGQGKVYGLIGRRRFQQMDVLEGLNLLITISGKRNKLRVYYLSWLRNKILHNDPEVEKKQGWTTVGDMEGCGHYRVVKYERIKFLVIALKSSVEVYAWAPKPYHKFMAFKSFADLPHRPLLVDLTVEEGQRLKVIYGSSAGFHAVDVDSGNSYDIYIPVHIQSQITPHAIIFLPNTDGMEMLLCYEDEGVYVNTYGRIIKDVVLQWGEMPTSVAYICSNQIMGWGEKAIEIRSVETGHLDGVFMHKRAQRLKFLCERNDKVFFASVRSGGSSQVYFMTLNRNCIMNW

## Nc1cc(C(F)(F)F)c(-c2cc(N3CCOCC3)nc(N3CCOCC3)n2)cn1 [Buparlisib]
Panel of 442 kinases [1]
  remaining activity at 1 µM: 100%
Panel of 442 kinases [1]; [9]
  remaining activity at 10 µM: 100%
Panel of 442 kinases [2]
  remaining activity at 1 µM: 100%
Panel of 442 kinases [2]; 10 µM, read-out: PRP4 (% of control at 10 µM)
  remaining activity at 10 µM: 93%
Panel of 442 kinases [3]
  remaining activity at 1 µM: 88%
Panel of 442 kinases [3]; [9]
  remaining activity at 10 µM: 100%
Panel of 442 kinases [4]
  remaining activity at 1 µM: 94%
Panel of 442 kinases [4]; 10 µM, read-out: YANK3 (% of control at 10 µM)
  remaining activity at 10 µM: 100%
Panel of 442 kinases [5]
  remaining activity at 1 µM: 87%
Panel of 442 kinases [5]; [9]
  remaining activity at 10 µM: 83%
Panel of 442 kinases [6]
  remaining activity at 1 µM: 95%
Panel of 442 kinases [6]; [9]
  remaining activity at 10 µM: 100%
Panel of 442 kinases [7]
  remaining activity at 1 µM: 100%
Panel of 442 kinases [7]; [9]
  remaining activity at 10 µM: 100%
Panel of 442 kinases [8]
  remaining activity at 1 µM: 96%
Panel of 442 kinases [8]; 10 µM, read-out: TIE1 (% of control at 10 µM)
  remaining activity at 10 µM: 100%

## COc1ncc(-c2ccc3nccc(-c4ccnnc4)c3c2)cc1NS(=O)(=O)c1ccc(F)cc1F [Omipalisib]
Panel of 442 kinases [1]
  remaining activity at 1 µM: 69%
Panel of 442 kinases [2]
  remaining activity at 1 µM: 95%
Panel of 442 kinases [3]
  remaining activity at 1 µM: 100%
Panel of 442 kinases [4]
  remaining activity at 1 µM: 100%
Panel of 442 kinases [5]
  remaining activity at 1 µM: 100%
Panel of 442 kinases [6]
  remaining activity at 1 µM: 100%
Panel of 442 kinases [7]
  remaining activity at 1 µM: 83%
Panel of 442 kinases [8]
  remaining activity at 1 µM: 100%

## FC(F)c1nc2ccccc2n1-c1nc(N2CCOCC2)nc(N2CCOCC2)n1 [ZSTK474, 2-(difluoromethyl)-1-[4,6-di(4-morpholinyl)-1,3,5-triazin-2-yl]-1H-benzimidazole]
Panel of 442 kinases [1]
  remaining activity at 1 µM: 80%
Panel of 442 kinases [2]
  remaining activity at 1 µM: 100%
Panel of 442 kinases [3]
  remaining activity at 1 µM: 99%
Panel of 442 kinases [4]
  remaining activity at 1 µM: 73%
Panel of 442 kinases [5]
  remaining activity at 1 µM: 60%
Panel of 442 kinases [6]
  remaining activity at 1 µM: 100%
Panel of 442 kinases [7]
  remaining activity at 1 µM: 100%
Panel of 442 kinases [8]
  remaining activity at 1 µM: 88%

## Cn1c(=O)n(-c2ccc(C(C)(C)C#N)cc2)c2c3cc(-c4cnc5ccccc5c4)ccc3ncc21 [Dactolisib, 2-methyl-2-[4-(3-methyl-2-oxo-8-quinolin-3-yl-2,3-dihydroimidazo[4,5-c]quinolin-1-yl)-phenyl] propionitrile]
Panel of 442 kinases [1]
  remaining activity at 1 µM: 78%
Panel of 442 kinases [2]
  remaining activity at 1 µM: 100%
Panel of 442 kinases [3]
  remaining activity at 1 µM: 100%
Panel of 442 kinases [4]
  remaining activity at 1 µM: 88%
Panel of 442 kinases [5]
  remaining activity at 1 µM: 100%
Panel of 442 kinases [6]
  remaining activity at 1 µM: 63%
Panel of 442 kinases [7]
  remaining activity at 1 µM: 49%
Panel of 442 kinases [8]
  remaining activity at 1 µM: 100%
